System: subjects suffering from dysthymic disorders
Assay: Clinical trial of acetyl L-carnitine in patients with mood disorders classifiable as dysthymia (rating scales, alcohol intake, libido, safety)
Assay type: in vivo, human
Settings: for Hamilton Depression Rating Scale (HDRS): basal 13.9 ± 5.3; for Hamilton Anxiety Rating Scale (HARS): basal 18.6 ± 3.8; for Global Functional (or Social Adaptation) Rating (GFR): basal 63.4 ± 6.6; for alcohol-free days: baseline 6±2
Description: The selection of the patients for this trial consisted in a selection by exclusion, in which the medical history criterion was of paramount importance, with exclusion of all patients presenting episodes of major depression and cyclothymic manifestations classifiable as such on the basis of the DMS criteria.
Subjects were therefore recruited whose mood disorders had been dominated by dysphoric manifestations for at least 4 years, classifiable as dysthymia (DMS IV) and a depressive, irritable, cyclothymic personality or temperament on the basis of DMS IV and AXIS II. A total of 20 patients were selected, 12 males and 8 females, matching up to the above-mentioned criteria, and with a mean age of 26±2 years. Six patients (males) also complained of diminished libido and episodes of impotence, while the 8 female patients complained of loss of libido and anorexia. Eight patients (4 males) reported an increased intake of alcoholic beverages, without clinical complications, in the previous 8 months (mean intake 142±15 g/day) and 6 patients (1 male) reported bulimic episodes resulting in a mean weight gain of 2.1±0.5 kg over the previous 6 months.
Each patient was recruited into the study after 3 repeated visits, at monthly intervals, for the purposes of ruling out other concomitant pathologies or disorders according to DMS IV and AXIS II involving definite abuse of psychotropic substances. The objective neurological examination, current laboratory tests (SMA plus), ECG. BP and chest X-rays were all within normal limits.
None of the patients had been treated with SSRI or tricyclic antidepressants during the previous year. In the course of the month preceding the treatment with acetyl L-carnitine all treatments consisting in administration of benzodiazepines during the daytime were discontinued and only the administration of Lorazepam (2.5 mg) at 9 p.m. was allowed for all patients.
Each patient was administered acetyl L-carnitine 1 g per os twice daily (at breakfast- and lunch-time) for two months.
During the clinical interviews, at entry into the study, on day 45 of administration of acetyl L-carnitine and on day 90 (one month after the end of the treatment), patients were administered the following standardized rating scales: Hamilton Depression Rating Scale (HDRS), Hamilton Anxiety Rating Scale (HARS), Global Functional (or Social Adaptation) Rating (GFR).
For the recording of alcohol intake, a self-administered scale was used to record the alcohol-free days as a percentage of the total and the number of daily alcohol intakes, considering the intake of 10 grams as a single intake, in the month preceding treatment, during the treatment months and in the month following acetyl L-carnitine treatment.

[1] = Day 45 of administration, 1 g per os twice daily
[2] = Day 90 (one month after the end of treatment)

**Q.** How did the “Hamilton Depression Rating Scale (HDRS)” value (Day 45 of administration, 1 g per os twice daily, 20 patients) turn out when CC(=O)O[C@H](CC(=O)[O-])C[N+](C)(C)C [acetyl L-carnitine] was run?
**A.** 9.1 ± 4.8

**Q.** What about the “Hamilton Anxiety Rating Scale (HARS)” value [1] of the same compound?
**A.** 12.8 ± 4.4

**Q.** What about the “Global Functional (or Social Adaptation) Rating (GFR)” value [1] of the same compound?
**A.** 75.3 ± 7.9

**Q.** And the “Hamilton Depression Rating Scale (HDRS)” value (Day 90 (one month after the end of the two-month treatment))?
**A.** 12.8 ± 5.4

**Q.** What about the “Hamilton Anxiety Rating Scale (HARS)” value [2] of the same compound?
**A.** 16.9 ± 5.0

**Q.** And the “Global Functional (or Social Adaptation) Rating (GFR)” value [2]?
**A.** 67.7 ± 6.8

**Q.** What about the “symptoms of impotence and diminished libido” value (all male patients, 15 days after the start of treatment) of the same compound?
**A.** disappearance of symptoms of impotence and diminished libido

**Q.** And the alcohol-free days (during the two months of treatment, on average, self-administered scale)?
**A.** 16±3

**Q.** What about the “changes in laboratory tests, BP and ECG as compared to pre-treatment conditions” value (end of treatment) of the same compound?
**A.** no significant changes

**Q.** And the “laboratory tests performed at the end of treatment” value (end of two-month treatment, 1 g per os twice daily)?
**A.** normal values

**Q.** And the alcohol-free days (in the month after treatment)?
**A.** 8±2

**Q.** What about the “expression of the depressive behavioural component” value (subjects suffering from dysthymic disorders, conclusion of the clinical trial) of the same compound?
**A.** significantly reduces

**Q.** What about the “mean number of alcohol intakes (10 grams = a single intake)” value (under treatment, as against 7.8±1.2) of the same compound?
**A.** 6.1±2.1

From patent US6335021B1, “Composition for controlling mood disorders in healthy individuals” (Sigma-Tau HealthScience S.p.A., priority 1997, dated 2002)
